Results: patent US8895585B2, “Nicotinamide derivative or salt thereof” (FUJIFILM Corporation, priority 2010, dated 2014)
Where two headings read alike, the source gives them in different places.

Columns and labels:
[1] = target: T1, glutathione S-transferase (GST)-fused full-length human Syk protein (Homo sapiens, UniProt P43405); test: Syk enzyme assay; format: biochemical
T1 construct: (GST)-fused full-length human Syk protein; GST (glutathione S-transferase); purchased Carna Biosciences
Outline: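 Baculovirus-expressed enzyme (1.2 ng) was preincubated with compound in HEPES pH 7.0/MgCl2/DTT buffer, 2 min shaking then 13 min at room temperature. Biotin-EDPDYEWPSA-NH2 (0.4 μM final) and ATP (27 μM final) were added for 40 min at room temperature. EDTA stop, streptavidin-XL/PT66-K TR-FRET at 615/665 nm gave IC50.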

THP-1 cells = test: TNFα generation assay; format: cell-based, human
Outline: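 THP-1 cells differentiated to macrophage-like cells with 10 ng/ml IFN-γ for 2 days, preincubated with compound 30 min at room temperature, then cultured 7 h on plates coated with human IgG (10 μg/ml). Secreted TNFα measured by ELISA or AlphaLISA.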

[2] = Syk enzyme assay, Test Example 1, read-out: IC50 of Syk-inhibitory activity
[3] = Homo sapiens, THP-1, THP-1 cells, Table 22, read-out: IC50 in TNFα generation assay

Compound	IC50 [1, 2] [nM]	IC50 (THP-1 cells; THP-1 cells, Table 22, read-out: IC50 in TNFα generation assay) [nM]	IC50 (THP-1 cells; [3]) [nM]	IC50 ([1]; read-out: Syk-inhibitory activity (IC50)) [nM]	IC50 (THP-1 cells; Homo sapiens, THP-1, 7 h, IFN-γ-differentiated THP-1 cells on human IgG-coated plate, cultured 7 hours, read-out: TNFα generation inhibitory activity (IC50)) [nM]
COCCn1ncc2cc(Nc3nc(N[C@@H]4CCCC[C@@H]4N)c(F)cc3C(N)=O)ccc21 [Example 004-172, 6-((1R,2S)-2-aminocyclohexylamino)-5-fluoro-2-((1-(2-methoxyethyl)-1H-indazol-5-yl)-amino)nicotinamide]	< 10	65 to 130	–	–	–
CC(C)C[C@H](CN)Nc1nc(Nc2cncc(-n3nccn3)c2)c(C(N)=O)cc1F [Example 004-195, (R)-2-((5-(2H-1,2,3-triazol-2-yl)pyridin-3-yl)amino)-6-((1-amino-4-methylpentan-2-yl)amino)-5-fluoronicotinamide]	< 10	–	65 to 130	–	–
CC(C)C[C@H](CN)Nc1nc(Nc2cnc3c(N)cccc3c2)c(C(N)=O)cc1F [Example 004-196, (R)-6-((1-amino-4-methylpentan-2-yl)amino)-2-((8-aminoquinolin-3-yl)amino)-5-fluoronicotinamide]	< 10	–	130 to 200	–	–
Cn1ncc2cc(Nc3nc(N[C@@H]4CCCC[C@@H]4N)c(F)cc3C(N)=O)cnc21 [Example 004-213]	10 to 50	–	65 to 130	–	–
COc1ncc(Nc2nc(N[C@@H]3CCCC[C@@H]3N)c(F)cc2C(N)=O)c2cc[nH]c12 [Example 004-235]	< 10	–	65 to 130	–	–
NCCNc1nc(Nc2ccc3ncccc3c2)c(C(N)=O)cc1F [Example 6-26, 6-((2-aminoethyl)amino)-5-fluoro-2-(quinolin-6-ylamino)nicotinamide]	–	–	–	≤ 1000	≤ 200
C[C@H](N)CNc1nc(Nc2cnc3ccccc3c2)c(C(N)=O)cc1F [Example 006-092, (S)-6-((2-aminopropyl)amino)-5-fluoro-2-((quinolin-3-yl)amino)nicotinamide]	< 10	–	< 65	–	–
COc1cc(Nc2nc(NC[C@H](C)N)c(F)cc2C(N)=O)cc(OC)c1 [Example 006-093, (S)-6-((2-aminopropyl)amino)-2-(3,5-dimethoxyphenylamino)-5-fluoronicotinamide]	< 10	–	< 65	–	–
Cc1cncc(Nc2nc(NC[C@H](C)N)c(F)cc2C(N)=O)c1 [Example 006-094, (S)-6-((2-aminopropyl)amino)-5-fluoro-2-((5-methylpyridin-3-yl)amino)nicotinamide]	10 to 50	–	65 to 130	–	–
COc1cc(Nc2nc(NC[C@H](C)N)c(F)cc2C(N)=O)ccn1 [Example 006-096, (S)-6-((2-aminopropyl)amino)-5-fluoro-2-((2-methoxypyridin-4-yl)amino)nicotinamide]	10 to 50	–	< 65	–	–
C[C@H](N)CNc1nc(Nc2cccc(-n3nccn3)c2)c(C(N)=O)cc1F [Example 006-097, (S)-2-((3-(2H-1,2,3-triazol-2-yl)phenyl)amino)-6-((2-aminopropyl)amino)-5-fluoronicotinamide]	< 10	–	< 65	–	–
Cc1cccc(Nc2nc(NC[C@H](C)N)c(F)cc2C(N)=O)c1 [Example 006-099]	10 to 50	–	< 65	–	–
COc1cc(Nc2nc(N[C@H](C)CN)c(F)cc2C(N)=O)cc(OC)c1 [Example 006-100, (R)-6-((1-aminopopan-2-yl)amino)-2-((3,5-dimethoxyphenyl)amino)-5-fluoronicotinamide]	< 10	–	65 to 130	–	–
Cc1cncc(Nc2nc(N[C@H](C)CN)c(F)cc2C(N)=O)c1 [Example 006-101, (R)-6-((1-aminopropan-2-yl)amino)-5-fluoro-2-((5-methylpyridin-3-yl)amino)nicotinamide]	10 to 50	–	65 to 130	–	–
C[C@H](CN)Nc1nc(Nc2ccc3c(cnn3C)c2)c(C(N)=O)cc1F [Example 006-102, (R)-6-((1-aminopropan-2-yl)amino)-5-fluoro-2-((1-methyl-1H-indazol-5-yl)amino)nicotinamide]	10 to 50	–	65 to 130	–	–
Cc1cncc(Nc2nc(N[C@@H]3CCCC[C@@H]3N)c(F)cc2C(N)=O)c1 [Example 006-103, 6-(((1R,2S)-2-aminocyclohexyl)amino)-5-fluoro-2-((5-methylpyridin-3-yl)amino)nicotinamide]	< 10	–	< 65	–	–
